Experimental data as given in US12058988B2, “Warm water immersion-based hatching method of silkworm eggs” (Sericulture and Agri-Food Research Institute, Guangdong …, priority 2021, dated 2024).
Like-named read-outs stand apart in the source and are kept apart here.

How the values were obtained:
silkworm eggs [1] = settings: cited from earlier work; for hatching rate: silkworm eggs 20 h after oviposition, 15% acid treatment (Manqiao Jiang et al.)
[2] = test system: silkworm eggs of a "Liangguang 2" quaternary hybrid; test: Feeding results of larvae after treating silkworm eggs by warm water hatching and hydrochloric acid hatching; assay type: in vivo, Bombyx mori; settings: eggs treated 18 h after laying, larvae fed after hatching
Experimental: 18 h after laying eggs, silkworm eggs of a “Liangguang 2” quaternary hybrid were treated in a hydrochloric acid solution (at a specific gravity of 1.075, 46° C.) for 5 min, followed by taking out for air-drying, incubation and hatching. Statistics was conducted on cocooning rate, whole cocoon weight, cocoon shell weight, cocoon shell rate and 10,000-silkworm cocoon weight.
18 h after laying eggs, silkworm eggs of a “Liangguang 2” quaternary hybrid were treated in a 50° C. warm aqueous solution (containing 0.2 g/L of chitosan, 0.1 g/L of hydroxypropyl cellulose and 0.1 g/L of γ-aminobutyric acid) for 20 s, followed by taking out for air-drying, incubation and hatching. Statistics was conducted on cocooning rate, whole cocoon weight, cocoon shell weight, cocoon shell rate and 10,000-silkworm cocoon weight.

silkworm eggs [3] = test: Practical hatching rate of silkworm eggs after immersion treatment; assay type: in vivo, Bombyx mori; settings: "Liangguang 2" quaternary hybrid, 18 h after laying, specific gravity 1.075, 46° C. for 5 min
Experimental: After laying eggs, “Liangguang 2” silkworm eggs were placed at 25° C.±1° C. and a humidity of 80%±5% for protection; the silkworm eggs with egg ages of 11 h, 13 h, 15 h, 17 h, 19 h, 21 h and 23 h were placed in an aqueous solution (containing 0.2 g/L of chitosan, 0.1 g/L of hydroxypropyl cellulose and 0.1 g/L of γ-aminobutyric acid) and then treated at 50° C. for 15 s, followed by taking out and air-drying for 25 min; and the silkworm eggs were subjected to incubation and hatching, wherein 3 replicates were set for each treatment. A practical hatching rate was calculated according to formula I, and an egg age-practical hatching rate curve was drawn. Practical hatching rate (%)=number of newly-hatched silkworms in two days/the total number of good eggs×100% formula I
17 h after laying eggs, silkworm eggs of a “Liangguang 2” quaternary hybrid were treated in a 50° C. aqueous solution (containing 0.1 g/L of chitosan, 0.2 g/L of hydroxypropyl cellulose and 0.05 g/L of γ-aminobutyric acid) for 20 s, followed by taking out for air-drying, incubation and hatching.
A practical hatching rate was counted. […]

Question: With `CC(=O)O` [acetic acid] as the molecule, how does the hatching rate (silkworm eggs [1]) read?
Answer: The hatching rate was “relatively low hatching rate”.

Question: Which “effect of preventing diapause” value (silkworm eggs [1]; Yamamoto et al.) does the source give for `C[S+](C)[O-]` [dimethyl sulfoxide] here?
Answer: The value was 78%.

Question: With `Cl` [hydrochloric acid] as the molecule, how does the “10,000-silkworm cocoon weight” value [2] read?
Answer: The value was 13.05 kg.

Question: What about the Cocoon shell rate [2] of the same molecule?
Answer: The Cocoon shell rate was 19.42%.

Question: And the Cocoon shell weight [2]?
Answer: The Cocoon shell weight was 0.26 g.

Question: And the Cocooning rate [2]?
Answer: The Cocooning rate was 96.27%.

Question: And the Whole cocoon weight [2]?
Answer: The Whole cocoon weight was 1.35 g.

Question: And the hatching rate (silkworm eggs [3])?
Answer: The hatching rate was 95.86%.

Question: Which hatching rate (silkworm eggs [1]) does the source give for `O=[N+]([O-])O` [nitric acid] here?
Answer: The hatching rate was “not less than 95%”.

Question: Which hatching rate (silkworm eggs [1]) does the source give for `O=P(O)(O)O` [phosphoric acid] here?
Answer: The hatching rate was “relatively low hatching rate”.
